Assay results reported in patent publication US20150056702A1, “METHOD AND KIT FOR CULTURING STEM CELLS” (China Medical University, priority 2013, published 2015).

Key:
Assay type in all cases: cell-based, mouse
[1] = tested on: EGF; experiment: Real-time PCR, cytokine gene EGF in ES cells; conditions: for EGF mRNA expression level: ES cells, control group = 100%
Description: (§1) An experimental group medium (BP5, BP10, BP20 or BP40) and a control group medium (without BP) were added respectively to perform the following steps. ES cells were cultured with an initial density of 1×10^4 per well in a 6-well culture dish. The medium was removed until the cells growth to be about 70 to 80% confluence, and then 1 ml TRIzol (Invitrogen) was added into each well. The cells were incubated for 5 minutes, and then was scraped by a spatula and placed into a 1.5 ml microtube to be lysed adequately. Chloroform (0.2 ml) was added into the microtubes. The mixture was shaken up and down for 15 seconds, and then incubated at room temperature for 2 to 3 minutes. Thereafter, the mixture was centrifuged at 12000 rpm at 4° C. for 15 minutes, and the supernatant was removed into another 1.5 ml microtube and isopropanol (0.5 ml) was added into the microtube with well mixing. The mixture was incubated at room temperature for 10 minutes and then centrifuged at 12000 rpm at 4° C. for 10 minutes. The supernatant was then removed. One ml of 70% ethanol containing DEPC.H2O was used to wash the remaining sediment. The sediment was centrifuged at 7500 rpm at 4° C. for 5 minutes. The supernatant was removed. The sediment was dried by vacuum suction. The dried samples were dissolved in about 0.01 to 0.02 ml of DEPC.H2O to obtain the experimental group RNA and control group RNA. Both groups were stored at −80° C.
(§2) The OD value of RNA samples in both groups obtained from the above Experiment I were measured at a wavelength of 260 nm (RNA: OD260=1 for a 40 μg/mL solution). Each RNA sample (2 μl) was added with RNA-free water until the volume of the sample reached 10 μl. Two μl oligo (dT) (100 μg/ml) was added into each sample, and the samples were incubated at 65° C. for 5 minutes. Then, the samples were immediately placed on ice and spun down. Next, 6.5 μl of a reaction solution [4 μl of 5× buffer+1 μl of 0.1 M DTT+1 μl of RNase out+0.5 μl of SSIII (Invitrogen)] was added into each of the samples, and the samples were incubated at 50° C. for about 30 to 60 minutes and at 75° C. for 15 minutes to obtain the experimental group cDNA and control group cDNA. Both groups were stored at −80° C.
(§3) This experiment was used to detect the expression levels of ES cell-related genes, i.e., Oct4 and Sox2, etc. First, 4 μl of the experimental group cDNA or control group cDNA was added into each well of a 96-well micro-reaction plate, and mixed with 6 μl of a reaction solution [0.5 μl of 6 μM forward primer+0.5 μl of 6 μM reverse primer+5 μl of SYBR Green PCR Master mix (Roche)], wherein the SYBR Green PCR Master mix included the reagents needed for Q-PCR, such as dNTPs, MgCl, Taq DNA polymerase and 2×SYBR® Green I solution. […] The cycle threshold (CT) values were measured. […]

[2] = tested on: Jak2; experiment: Real-time PCR, Jak2 mRNA in ES cells; conditions: for Jak2 Gene expression level: ES cells, control group = 100%
Description: as §1, §2, §3

[3] = tested on: LIF; experiment: Real-time PCR, cytokine gene LIF in ES cells; conditions: for LIF mRNA expression level: ES cells, control group = 100%
Description: as §1, §2, §3

[4] = tested on: OSM; experiment: Real-time PCR, cytokine gene OSM in ES cells; conditions: for Osm mRNA expression level: ES cells, control group = 100%
Description: as §1, §2, §3

[5] = tested on: SSEA1; experiment: Immunofluorescence staining, SSEA1 in iPS cells; conditions: 72 hours, control group = 100%
From the text: Nanog and SSEA1 are also marker proteins of stem cells, and their expression levels could be measured by immunofluorescence staining to further confirm whether BP can effectively maintain the self-renewal and pluripotency of stem cells.
An experimental group medium (BP5, BP10, BP20 or BP40), a LIF-containing medium (without BP), and a control group medium (without BP) were used respectively in a 6-well culture dish which comprises a slide in each well to culture ES cells with an initial density of 1×10^4 per well for 72 hours. The medium was removed and the cells were washed with PBS. Next, PBS was removed, and then 4% paraformaldehyde was added to perform the fixation at room temperature for 10 minutes. Next, paraformaldehyde was removed, and then slides were washed with 0.1% Tween-20/1X PBS three times for 10 minutes each time. The 0.3% Tween-20/1X PBS was added and held at room temperature for 30 minutes to penetrate the cell membrane to benefit the dye entry. After the slides were washed three times with 0.1% Tween-20, 5% FBS/1×PBS was added to perform a blocking reaction at room temperature for 2 hours, and then reacting with the primary antibody [anti-Nanog (Novus) or anti-SSEA1 (Millipore)] at a dilution of 1:100 at room temperature overnight. Slides were then washed 5 times with 0.1% Tween-20, then reacting with the secondary antibody [FITC-conjugated anti-mouse IgG or TRITC-conjugated anti-rabbit IgG (Sigma-Aldrich)] at a dilution of 1:500. After washed with 0.1% Tween-20 for 10 minutes, slides were mounted with the DAPI-containing UltraCruz™ Mounting medium and observed using an inverted fluorescent microscope.
By using the above culture conditions, an experimental group medium (BP5, BP10, BP20 or BP40), a LIF-containing medium (without BP), and a control group medium (without BP) were used respectively to culture iPS cells. The staining of iPS cells was performed by using the steps described above.

[6] = BP10 medium (about 10 μg BP/ml)
[7] = BP-containing ES cell medium, result in words
[8] = LIF-containing medium (LIF 4 ng/ml)
[9] = LIF-containing medium (LIF 4 ng/ml, without BP)

CCCC=C1OC(=O)c2ccccc21 [BP, n-butylidenephthalide]
EGF mRNA expression level ([1]; BP5 medium (about 5 μg BP/ml)): 110%
EGF mRNA expression level [1, 6]: 204%
mRNA expression level of EGF [1, 7]: significantly up-regulated
Jak2 Gene expression level ([2]; BP5 medium (about 5 μg BP/ml)): 180%
Jak2 Gene expression level [2, 6]: 211%
mRNA expression level of Jak2 ([2]; BP-containing ES cell medium (BP5 or BP10), result in words): significantly up-regulated
LIF mRNA expression level ([3]; BP5 medium (about 5 μg BP/ml)): 113%
LIF mRNA expression level [3, 6]: 184%
mRNA expression level of LIF [3, 7]: significantly up-regulated
Osm mRNA expression level ([4]; BP5 medium (about 5 μg BP/ml)): 109%
Osm mRNA expression level [4, 6]: 246%
mRNA expression level of OSM [4, 7]: significantly up-regulated
SSEA1 expression level ([5]; BP5 medium (about 5 μg BP/ml)): 117%
SSEA1 expression level [5, 6]: 101%
SSEA1 expression level ([5]; BP20 medium (about 20 μg BP/ml)): 94%
SSEA1 expression level ([5]; BP40 medium (about 40 μg BP/ml)): 137%

LIF: multifunctional cell factor used to maintain pluripotency of stem cells; LIF-containing medium (4 ng/ml, without BP) as comparison
EGF mRNA expression level [1, 8]: 145%
Jak2 Gene expression level [2, 9]: 159%
LIF mRNA expression level [3, 8]: 81%
Osm mRNA expression level [4, 8]: 128%
SSEA1 expression level [5, 9]: 230%
